This passage reports IC50 results from PubChem BioAssay AID651581 (Sanford-Burnham Center for Chemical Genomics, 2012).

Activity calls are given as the source filed them. The rule behind the calls is not given here. Some results are limits rather than exact numbers.

In experiment [1] the target is Endothelial PAS domain-containing protein 1 (Homo sapiens) (UniProt Q99814). Put plainly: potency against HIF reporters across cell lines – luminescence, panel, selectivity assay for HIF-2a inhibitor project, dose response (AID 651581). The settings on record: human cell HIF reporter.
Experiment [2] concerns the target Hypoxia-inducible factor 1-alpha (Homo sapiens) (UniProt Q16665). Described as above. The conditions noted are these: human cell HIF reporter, HIF-1a.

Chain of Hypoxia-inducible factor 1-alpha (Homo sapiens) (Q16665 whole entry, looked up): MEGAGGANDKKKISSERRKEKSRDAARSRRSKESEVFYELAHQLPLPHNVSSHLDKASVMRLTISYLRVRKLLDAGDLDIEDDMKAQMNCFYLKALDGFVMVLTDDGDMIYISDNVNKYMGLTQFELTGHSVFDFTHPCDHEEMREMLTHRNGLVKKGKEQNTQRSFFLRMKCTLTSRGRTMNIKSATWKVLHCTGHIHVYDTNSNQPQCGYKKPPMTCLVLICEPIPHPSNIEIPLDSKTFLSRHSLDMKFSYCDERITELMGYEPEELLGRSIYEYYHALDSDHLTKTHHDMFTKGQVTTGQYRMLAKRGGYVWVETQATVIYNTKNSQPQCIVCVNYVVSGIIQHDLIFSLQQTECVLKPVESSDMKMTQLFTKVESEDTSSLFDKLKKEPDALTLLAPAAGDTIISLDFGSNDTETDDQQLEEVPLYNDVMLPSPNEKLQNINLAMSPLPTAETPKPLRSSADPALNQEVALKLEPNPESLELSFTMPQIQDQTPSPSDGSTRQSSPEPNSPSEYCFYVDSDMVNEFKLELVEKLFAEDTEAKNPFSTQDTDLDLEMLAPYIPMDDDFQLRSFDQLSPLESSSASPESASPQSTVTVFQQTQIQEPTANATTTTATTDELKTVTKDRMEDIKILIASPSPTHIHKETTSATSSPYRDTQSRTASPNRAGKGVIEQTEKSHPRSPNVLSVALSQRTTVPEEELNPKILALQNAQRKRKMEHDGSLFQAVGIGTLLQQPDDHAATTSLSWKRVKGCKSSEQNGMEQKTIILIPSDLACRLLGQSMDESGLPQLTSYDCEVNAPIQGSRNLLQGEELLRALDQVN

For `O=C(O)COc1ccc2oc3ccccc3c2c1`, the IC50 (in general, the midpoint of a concentration-inhibition curve) in experiment [1] (HIF-2a PANC, mean of runs) is “inactive”; in experiment [1] (HIF-2a, mean of runs) it was “inactive”. For the same compound, the IC50 was 75.3 µM in experiment [1] (HIF-2a PANC, run 1); 20.5 µM in experiment [1] (HIF-2a PANC, run 2); 13.1 µM in experiment [1] (HIF-2a, run 1); 12.7 µM in experiment [1] (HIF-2a, run 2); 43.4 µM in experiment [2] (mean of runs); 27.8 µM in experiment [2] (run 1). Moreover, in experiment [2] (run 2), the IC50 is 59 µM.
For `Cc1nc2cc(-c3cccc(F)c3)nn2c(C)c1CCC(=O)NC(C)c1ccc2c(c1)OCCO2` (configuration not stated), the IC50 result in experiment [1] (HIF-2a PANC, mean of runs) was “inactive”. In addition, the IC50 was 41.1 µM in experiment [1] (HIF-2a PANC, run 1); 11.9 µM in experiment [1] (HIF-2a PANC, run 2); 4.38 µM in experiment [1] (HIF-2a, mean of runs); 4.45 µM in experiment [1] (HIF-2a, run 1); 4.31 µM in experiment [1] (HIF-2a, run 2); 18.6 µM in experiment [2] (mean of runs). Further, the IC50 in experiment [2] (run 1) amounted to 19.2 µM; in experiment [2] (run 2), 18 µM.
For `O=C(O)c1cccc(C(=O)Nc2cccc(NC(=O)C3CCCO3)c2)c1` (configuration not stated), the IC50 in experiment [1] (HIF-2a PANC, mean of runs) was > 99 µM (inactive); in experiment [1] (HIF-2a PANC, run 1), more than 99 µM; in experiment [1] (HIF-2a PANC, run 2), more than 99 µM; in experiment [1] (HIF-2a, run 1) it was 30.8 µM; in experiment [1] (HIF-2a, run 2), 26.9 µM; in experiment [2] (run 1), more than 99 µM. In addition, in experiment [2] (run 2), the IC50 is more than 99 µM. Also, in experiment [1] (HIF-2a, mean of runs), the IC50 entry was “inactive”.
Regarding `COc1ccccc1N1C(=O)C=C(Sc2nc(C)cc(C)n2)C1=O`, the IC50 is > 99 µM (inactive) in experiment [1] (HIF-2a PANC, mean of runs); more than 99 µM in experiment [1] (HIF-2a PANC, run 1); more than 99 µM in experiment [1] (HIF-2a PANC, run 2); 10.2 µM in experiment [1] (HIF-2a, run 1); 11.8 µM in experiment [1] (HIF-2a, run 2); 68.3 µM in experiment [2] (run 1). In addition, the IC50 in experiment [2] (run 2) was more than 99 µM. Moreover, the IC50 entry in experiment [1] (HIF-2a, mean of runs) was “inactive”.
On to `Cc1ccoc1C(=O)Nc1ccc(CC(=O)O)cc1`, for which the IC50 was 0.796 µM in experiment [1] (HIF-2a PANC, mean of runs); 0.895 µM in experiment [1] (HIF-2a PANC, run 1); 0.698 µM in experiment [1] (HIF-2a PANC, run 2); 0.374 µM in experiment [1] (HIF-2a, mean of runs); 0.366 µM in experiment [1] (HIF-2a, run 1); 0.382 µM in experiment [1] (HIF-2a, run 2). In addition, the IC50 in experiment [2] (run 1) and in experiment [2] (run 2) was more than 99 µM each time.
Regarding `CCc1ccc(S(=O)(=O)ON2C(=O)c3ccccc3C2=O)cc1`, the IC50 in experiment [1] (HIF-2a PANC, run 1) is 53.4 µM; in experiment [1] (HIF-2a PANC, run 2), more than 99 µM; in experiment [1] (HIF-2a, run 1), 10.6 µM; in experiment [1] (HIF-2a, run 2) it was 9.59 µM; in experiment [2] (run 1), 25.1 µM; in experiment [2] (run 2), more than 99 µM. For the same compound, the IC50 result in experiment [1] (HIF-2a, mean of runs) was “inactive”.
Take `N=c1nc(SCCC(=O)O)ss1`: the IC50 result in experiment [1] (HIF-2a PANC, mean of runs) is “inactive”; in experiment [2] (mean of runs) it was “inactive”. Further, the IC50 was 30.8 µM in experiment [1] (HIF-2a PANC, run 1); 39.5 µM in experiment [1] (HIF-2a PANC, run 2); 6.38 µM in experiment [1] (HIF-2a, mean of runs); 6.36 µM in experiment [1] (HIF-2a, run 1); 6.39 µM in experiment [1] (HIF-2a, run 2); 7.84 µM in experiment [2] (run 1). In experiment [2] (run 2), this compound gave an IC50 of 14.4 µM.
For `O=C(CCCc1ccccc1)Nc1cccc(C(=O)O)c1`, the IC50 was > 99 µM (inactive) in experiment [1] (HIF-2a PANC, mean of runs); more than 99 µM in experiment [1] (HIF-2a PANC, run 1); more than 99 µM in experiment [1] (HIF-2a PANC, run 2); 17 µM in experiment [1] (HIF-2a, run 1); 14.5 µM in experiment [1] (HIF-2a, run 2); more than 99 µM in experiment [2] (run 1). In experiment [2] (run 2), the IC50 was more than 99 µM. Besides, in experiment [1] (HIF-2a, mean of runs), the IC50 entry is “inactive”.
`Cc1nn(-c2ccccc2)c(Cl)c1/C=N/Nc1ccc(Cl)c(C(=O)O)c1`: the IC50 in experiment [1] (HIF-2a PANC, run 1) was more than 99 µM; in experiment [1] (HIF-2a PANC, run 2) it was more than 99 µM; in experiment [1] (HIF-2a, run 1), less than 30 µM; in experiment [1] (HIF-2a, run 2), more than 99 µM; in experiment [2] (mean of runs), > 99 µM (inactive); in experiment [2] (run 1), more than 99 µM. Also, in experiment [2] (run 2), the IC50 is more than 99 µM.
`O=Cc1ccc(-c2cccs2)s1`: the IC50 in experiment [1] (HIF-2a PANC, mean of runs) was > 99 µM (inactive); in experiment [1] (HIF-2a PANC, run 1) it was more than 99 µM; in experiment [1] (HIF-2a PANC, run 2), more than 99 µM; in experiment [1] (HIF-2a, mean of runs) it was 5.55 µM; in experiment [1] (HIF-2a, run 1) it was 5.49 µM; in experiment [1] (HIF-2a, run 2) it was 5.62 µM. The IC50 in experiment [2] (run 1) and in experiment [2] (run 2) was more than 99 µM each time.
For `Cc1nc2cc(-c3ccccc3)nn2c(C)c1CCC(=O)NC(C)c1ccc2c(c1)OCCO2` (configuration not stated), the IC50 is 2.4 µM in experiment [1] (HIF-2a PANC, mean of runs); 2.9 µM in experiment [1] (HIF-2a PANC, run 1); 1.91 µM in experiment [1] (HIF-2a PANC, run 2); 3.26 µM in experiment [1] (HIF-2a, mean of runs); 3.59 µM in experiment [1] (HIF-2a, run 1); 2.92 µM in experiment [1] (HIF-2a, run 2). Also, the IC50 was 24.3 µM in experiment [2] (mean of runs), 3.84 µM in experiment [2] (run 1) and 44.7 µM in experiment [2] (run 2).
`O=C1C=C(c2ccc(Cl)cc2)C(=O)N1Nc1ccccc1`: the IC50 result in experiment [1] (HIF-2a PANC, mean of runs) was “inactive”. In addition, the IC50 is 29.9 µM in experiment [1] (HIF-2a PANC, run 1); 75.9 µM in experiment [1] (HIF-2a PANC, run 2); 5.66 µM in experiment [1] (HIF-2a, mean of runs); 5.69 µM in experiment [1] (HIF-2a, run 1); 5.63 µM in experiment [1] (HIF-2a, run 2); 25.8 µM in experiment [2] (mean of runs). Further, the IC50 in experiment [2] (run 1) was found to be 22.8 µM; in experiment [2] (run 2), 28.9 µM.
On to `CC1(C)CC[C@]2(C(=O)O)CC[C@]3(C)C(=CC[C@@H]4[C@@]5(C)CC[C@H](O[C@@H]6O[C@H](C(=O)O)[C@@H](O)[C@H](O[C@@H]7OC[C@H](O)[C@H](O)[C@H]7O)[C@H]6O)C(C)(C)[C@@H]5CC[C@]43C)[C@@H]2C1`, for which the IC50 in experiment [1] (HIF-2a PANC, run 1) is more than 99 µM; in experiment [1] (HIF-2a PANC, run 2) it was 16.2 µM; in experiment [1] (HIF-2a, run 1), 14.3 µM; in experiment [1] (HIF-2a, run 2), 14.4 µM; in experiment [2] (run 1), 15.4 µM; in experiment [2] (run 2), 15.7 µM. For the same compound, the IC50 result in experiment [1] (HIF-2a, mean of runs) is “inactive”; in experiment [2] (mean of runs), “inactive”.
